Measured values reported in article PMC5335257, “Promoting in vivo remyelination with small molecules: a neuroreparative pharmacological treatment for Multiple Sclerosis” (Scientific Reports, 2017).
Entries after “also recorded” stand apart in the source; their conditions may differ.

Legend:
[1] = tested on: spinal cord injury models; design: method as in PMID 21297958, PMID 23077723; conditions: spinal cord injury models (as well as EAE); cited from earlier work
[2] = tested on: cerebellar slices demyelinated with LPC; experiment: Ex vivo remyelination in cerebellar slice cultures demyelinated with LPC; type: cell-based, CD1 P7 mice; conditions: 5 μM, 3 days post lesion (3DPL)
Description: The protocol used was modified from previously described. CD1 P7 mice were decapitated, and their cerebella were dissected into ice-cold HBSS (Invitrogen). 300 μm sagittal slices of cerebellum were cut using a McIllwain tissue chopper, placed on Millicell-CM organotypic culture inserts (3 slices per insert; Millipore) in a medium containing HBSS:BME: horse serum (1:2:1, Invitrogen), 28 mM D (+) - glucose (Normapur), […] L-Glutamine (Invitrogen) and 100 U/mL penicillin, 0.1 mg/mL streptomycin and 0.25 μg/ml Amphotericin B antibiotic anti-mycotic solution (Sigma) and maintained at 5% CO2 and 37 °C. Medium was changed every two days, and after 7 days in culture, demyelination was induced by addition of 0.5 mg/ml LPC (Sigma) to the medium for 15 h. After that, slices were treated with fresh medium containing PDE7-GSK3 or GSK3 inhibitors (VP1.15, VP3.15 or TDZD8; 5 μM). Cultures were maintained for 1 or 3 days post lesion (DPL), and then fixed for 40 minutes and immunostained with anti-MBP antibodies (myelin basic protein –as a marker of myelin; 1:200; Serotec; Cat#MCA4095) and anti-neurofilament antibody (as a marker of axons; 1:200; Abcam; Cat#ab8135). Fluorescence images were taken on a confocal SP5 resonant scanner (Leica Microsystems) at 1μm intervals in white matter areas at x40 magnification. The photographs were merged and co-localisation of both markers was quantified with Image J software using the colocalization highlighter plugin. This measurement was related to the area occupied by axons (neurofilament staining) and normalized with control values showing the data as the mean normalized myelination index ± SEM. Quantification was made in at least three independent experiments.

[3] = tested on: corpus callosum of cuprizone-fed mice; experiment: In vivo remyelination, cuprizone demyelination model; design: species or system C57/BL6 male mice
Description: The protocol used was modified from previously described. Demyelination was induced by feeding 8 weeks old male C57/BL6 mice ad libitum with 0.2% cuprizone (bis-cyclo-hexanone-oxaldihydrazone; Sigma) mixed with milled chow (Altromin) for 5 weeks. A control group was maintained in the same conditions but fed with the chow without cuprizone. After cuprizone withdrawal, mice were intraperitoneally injected on 3 alternate days with PDE7-GSK3 inhibitors (VP1.15 or VP3.15; 10 mg/kg of animal) using a solution of the compound (100 mg/mL in DMSO) diluted 1:50 in a solution of 5% Tocrisolve (Tocris, UK) in distilledwater[36] or with the vehicle. 1 week after the cuprizone withdrawal, mice were transcardially perfused with 4% PFA in phosphate buffer. Another group was maintained for 3 weeks after cuprizone withdrawal and injected with 3 doses per week on alternate days of the PDE7-GSK3 inhibitors (10 mg/kg of animal per dose see above) or the vehicle and then perfused. The corpus callosum of three animals per condition was studied. For histological examination, forebrain coronal sections (20 μm) were taken of the rostral part of the corpus callosum as previously described[80][81] and stained with eriochrome cyanine using a standard protocol in order to study the myelin. Briefly, cryosections on glass slides were immersed in acetone for 5 minutes, dried and submerged in eriochrome cyanine solution (Sigma) for 1 hour and then differentiated in 5% (w/v) iron alum for 5–10 minutes, followed by a second differentiation with borax-ferricyanide solution for 5 minutes. The stained area was measured with the Image J software and related to the total analyzed area. For the immunofluorescence analysis, tissue sections were stained with anti-MBP (1:200; Serotec; Cat#MCA4095) for myelin, anti-PDGFRα (1:200; Santa Cruz; Cat#sc338) for OPCs, anti-CC1 (1:100; Calbiochem, Cat#OP80) and anti-GFAP (Glial fibrillary acidic protein; 1:200; Dako; Cat#Z0334) for astrocytes, and tomato lectin (TL; 1:67; Sigma; Cat#L0651) for microglia. Optical images were acquired using an Olympus BX61 microscope and fluorescence images were taken using a DFC480 FX digital camera (Leica) coupled to a Leica DM5000 B microscope or a confocal SP5 resonant scanner (Leica). Myelin staining (with MBP and eriochrome cyanine) and CC1 staining were quantified by taking pictures of non-overlapping fields of coronal sections of the corpus callosum, between the lateral ventricles (2 fields per section, 5–6 sections of each mice; using a x20 objective) and by measuring the fluorescence intensity or blue staining using the Image J software. The number of OPCs per field was also counted in pictures of the midline of the corpus callosum using the x40 objective (4–6 sections per mice). Astrocytes and microglia were evaluated in pictures of the same area of the corpus callosum using the x40 objective and quantified by measuring the area occupied by GFAP or TL staining respectively using the Image J software (4–6 sections per mice). Data were expressed as the mean ± SEM.

[4] = design: method as in PMID 23077723, PMID 25264825; conditions: cited from earlier work
[5] = tested on: OPCs; design: method as in PMID 23661015; conditions: cited from earlier work
[6] = tested on: GSK-3; design: method as in PMID 24437940; conditions: read-out: GSK-3 inhibition IC50; cited from earlier work
[7] = tested on: PDE7; design: method as in PMID 24437940; conditions: read-out: PDE7 inhibition IC50; cited from earlier work
[8] = tested on: corpus callosum of LPC-injected mice; experiment: In vivo remyelination, LPC demyelination model; design: species or system C57/BL6 male mice; conditions: 10 mg/kg i.p. from 9 dpi
Description: Anaesthetized 8 week old C57/BL6 male mice were injected with 2 μl of 1% LPC through a hole drilled in the skull at stereotactic coordinates 1.2 mm posterior, 0.5 mm lateral, 1.4 mm deep to the bregma over 4 minutes using a 30-gauge needle attached to a Hamilton syringe, driven by a KD Scientific Nano pump, for 4 minutes to reduce backflow as previously described. At 9 days post injection (dpi), the first intraperitoneal dose of PDE7-GSK3 inhibitors (VP1.15 or VP3.15; 10 mg/kg of animal) was injected using the same solution detailed above for the cuprizone model. Each inhibitor was injected into a group of 10 mice and another group of 10 mice was injected with the vehicle. Two days after, a second dose was injected (11 dpi) and 5 mice of each group were perfused at 14 dpi with 4% PFA and 2% glutaraldehyde (GTA) in phosphate buffer. The remaining 5 animals of each group received a third injection of inhibitors (15 dpi) and were perfused at 21 dpi. A control group of 3 non-lesioned and non-treated mice was used as control. Fixed brains were post-fixed in 1% GTA for 7 days and then coronally cut into 1 mm slices. The slices containing the injected areas were selected and the area of interest was cut and processed for electron microscopy into a resin (Araldite/TAAB 812 Resin Kit, TAAB) following manufacturer instructions.
In order to detect the injured areas for investigation, sagittal semi-thin sections (1 μm) were cut using an ultramicrotome (Leica) and stained with toluidine blue. Ultra-thin sections (60 nm thick) were cut and stained in uranyl acetate and lead citrate and the ultrastructure was analysed taking images with a GatanOrius CCD camera coupled to a transmission electronic microscope (Philips CM120). The percentage of myelinated fibres and the thickness of myelin sheaths were examined. The mean percentage of myelinated fibres was measured from 10 fields per animal. Grids were overlaid onto the images and all axons intersecting with the grid lines were counted as myelinated or not[83][84]. The thickness of myelin around myelinated fibres was expressed as a g-ratio (axon perimeter divided by myelinated fibre perimeter) using ImageJ by tracing around a minimum of 100 individual fibres per mouse, using a pen and electronic pad (Bamboo pad, Wacom). To select the fibres randomly, a grid composed by 8 μm[2] squares was overlaid onto the images and fibres in alternate squares were measured. Data were expressed as the mean ± SEM.

Compound: OCC/N=c1/nc(-c2ccccc2)n(-c2ccccc2)s1 [VP1.15]
- immunomodulatory effect [1]: immunomodulatory effect
- remyelination (normalized myelination index) [2]: increased
- myelin staining (eriochrome cyanine) in corpus callosum vs vehicle ([3]; 10 mg/kg i.p. on 3 alternate days, 1 week after cuprizone withdrawal): significantly higher myelin staining; also recorded: almost complete remyelination
- myelin quantification by MBP immunodetection ([3]; 10 mg/kg i.p., after cuprizone withdrawal): confirmed these results, with similar effects
- microglial activation (TL staining) vs vehicle ([3]; 1 week after cuprizone withdrawal): Neither VP1.15 nor VP3.15 induced changes
- number of OPCs (PDGFRα+ cells) vs vehicle ([3]; one week after cuprizone withdrawal): significantly lower number of OPCs
- emetic side effects [4]: without emetic side effects
- OPC differentiation (and survival) in vitro [5]: enhance OPC differentiation and survival
- IC50 [6]: 1.95 µM
- IC50 [7]: 1.1 µM
- thickness of myelin sheaths (G-ratio) vs untreated demyelinated control [8]: increased the thickness
- percentage of myelinated callosal fibers vs vehicle ([8]; analysed at 14 or 21 dpi): increase
